The structures appear in SMILES notation. Starred links: 1 amine or outer side, 2 acyl side, 3 side chain; linkers in the order of their positions; H or OH if unused. Non-standard residues stand in square brackets, D forms with d. Residues, ends and D or L forms follow the SMILES beside them. Phe(4-(trans-4-COOH-cHex)) = N[C@@H](Cc1ccc([C@H]2CC[C@H](C(=O)O)CC2)cc1)C(=O)O; Phe(4-(cis-4-COOH-cHex)) = N[C@@H](Cc1ccc([C@H]2CC[C@@H](C(=O)O)CC2)cc1)C(=O)O; Ala(piperidin-4-yl) = O=C([C@H](CC1CCN([*:3])CC1)N[*:1])[*:2]; Trp(βS-Me,4-F) = C[C@@H](c1c[nH]c2cccc(F)c12)[C@H](N)C(=O)O; Bip(4'-COOH) = N[C@@H](Cc1ccc(-c2ccc(C(=O)O)cc2)cc1)C(=O)O; dPro(4R-Bzl(4-F)) = O=C(O)[C@H]1C[C@@H](Cc2ccc(F)cc2)CN1; Ala(morpholin-4-yl) = N[C@@H](CN1CCOCC1)C(=O)O; Ala(piperazin-1-yl) = N[C@@H](CN1CCNCC1)C(=O)O; Ala(pyrimidin-5-yl) = N[C@@H](Cc1cncnc1)C(=O)O; Phe(4-COOH) = N[C@@H](Cc1ccc(C(=O)O)cc1)C(=O)O; Ala(4-Pyridazinyl) = N[C@@H](Cc1ccnnc1)C(=O)O; Ala(2-pyrazinyl) = N[C@@H](Cc1cnccn1)C(=O)O; Pro(cis-4-F) = O=C(O)[C@@H]1C[C@H](F)CN1; Ala(4-THP) = N[C@@H](CC1CCOCC1)C(=O)O; cisHyp = O=C(O)[C@@H]1C[C@H](O)CN1; d(αMeD) = C[C@@](N)(CC(=O)O)C(=O)O; 4Pal = N[C@@H](Cc1ccncc1)C(=O)O; Dab = NCC[C@H](N)C(=O)O; Aib = CC(C)(N)C(=O)O

This experiment deals with T1, IL-1β (Homo sapiens, UniProt P01584).
T1 construct: purchased BioLegend 579404
T1 sequence (P01584 117-269): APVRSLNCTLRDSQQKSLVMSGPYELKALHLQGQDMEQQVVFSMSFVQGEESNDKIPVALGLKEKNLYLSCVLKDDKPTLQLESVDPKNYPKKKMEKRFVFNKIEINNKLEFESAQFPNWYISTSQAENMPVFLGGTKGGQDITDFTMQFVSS
In words: IL-6 assay in MRC5 cells: inhibition of IL-1β induced IL-6 secretion (AlphaLISA). Type of experiment: cell-based. The conditions noted are these: inhibition of IL-1β induced IL-6 secretion in MRC5 cells; read-out: MRC5 IC50. In short, it runs like this: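 Compound was pre-incubated 1 h at ambient temperature with recombinant human IL-1β at 2λ EC80 before adding human lung fibroblast MRC5 cells (3000/well) in EMEM with 0.025% BSA. After overnight culture at 37 °C, 5% CO2, secreted IL-6 in conditioned medium was measured by AlphaLISA; IC50 from 4-parameter logistic fits.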
A general note: In Alpha technology, singlet oxygen from a donor bead excites a nearby acceptor bead.
Turning to `C[C@@H](c1c[nH]c2cccc(F)c12)[C@@H]1NC(=O)[C@@H]2C[C@H](F)CN2C(=O)CNC(=O)[C@H](Cc2ccc(C(=O)O)cc2)NC(=O)[C@H](Cc2ccncc2)NC(=O)[C@H](Cc2ccc([C@H]3CC[C@H](C(=O)O)CC3)cc2)NC(=O)[C@H]2C[C@@H](Cc3ccc(F)cc3)CN2C(=O)CNC(=O)[C@H](CCN)NC(=O)[C@H](CCC(N)=O)NC(=O)[C@H](Cc2cncnc2)NC(=O)C(C)(C)NC(=O)[C@H](Cc2c[nH]c3ccccc23)NC(=O)[C@H](CCC(=O)O)NC(=O)C(C)(C)NC1=O` [Example 114] (cyclo([Phe(4-(trans-4-COOH-cHex))][4Pal][Phe(4-COOH)]G[Pro(cis-4-F)][Trp(βS-Me,4-F)][Aib]EW[Aib][Ala(pyrimidin-5-yl)]Q[Dab]G[dPro(4R-Bzl(4-F))])), the IC50 was determined as 0.035 nM. The same measure for `C[C@@H](c1c[nH]c2cccc(F)c12)[C@@H]1NC(=O)[C@@H]2C[C@H](F)CN2C(=O)CNC(=O)[C@H](Cc2ccc(C(=O)O)cc2)NC(=O)[C@H](Cc2ccncc2)NC(=O)[C@H](Cc2ccc(-c3ccc(C(=O)O)cc3)cc2)NC(=O)[C@H]2C[C@@H](Cc3ccc(F)cc3)CN2C(=O)CNC(=O)[C@H](CCN)NC(=O)[C@H](CCC(N)=O)NC(=O)[C@H](Cc2ccnnc2)NC(=O)C(C)(C)NC(=O)[C@H](Cc2c[nH]c3ccccc23)NC(=O)[C@H](CCC(=O)O)NC(=O)C(C)(C)NC1=O` [Example 115] (cyclo([Bip(4'-COOH)][4Pal][Phe(4-COOH)]G[Pro(cis-4-F)][Trp(βS-Me,4-F)][Aib]EW[Aib][Ala(4-Pyridazinyl)]Q[Dab]G[dPro(4R-Bzl(4-F))])): 0.023 nM; for `C[C@@H](c1c[nH]c2cccc(F)c12)[C@@H]1NC(=O)[C@@H]2C[C@H](F)CN2C(=O)CNC(=O)[C@H](Cc2ccc(C(=O)O)cc2)NC(=O)[C@H](Cc2ccnnc2)NC(=O)[C@H](Cc2ccc(-c3ccc(C(=O)O)cc3)cc2)NC(=O)[C@H]2C[C@@H](Cc3ccc(F)cc3)CN2C(=O)CNC(=O)[C@H](CCN)NC(=O)[C@H](CCC(N)=O)NC(=O)[C@H](Cc2cncnc2)NC(=O)C(C)(C)NC(=O)[C@H](Cc2c[nH]c3ccccc23)NC(=O)[C@H](CCC(=O)O)NC(=O)C(C)(C)NC1=O` [Example 116] (cyclo([Bip(4'-COOH)][Ala(4-Pyridazinyl)][Phe(4-COOH)]G[Pro(cis-4-F)][Trp(βS-Me,4-F)][Aib]EW[Aib][Ala(pyrimidin-5-yl)]Q[Dab]G[dPro(4R-Bzl(4-F))])): 0.04 nM; for `C[C@@H](c1c[nH]c2cccc(F)c12)[C@@H]1NC(=O)[C@@H]2C[C@H](F)CN2C(=O)CNC(=O)[C@H](Cc2ccc(C(=O)O)cc2)NC(=O)[C@H](Cc2ccncc2)NC(=O)[C@H](Cc2ccc([C@H]3CC[C@@H](C(=O)O)CC3)cc2)NC(=O)[C@H]2C[C@@H](Cc3ccc(F)cc3)CN2C(=O)CNC(=O)[C@H](CCN)NC(=O)[C@H](CCC(N)=O)NC(=O)[C@H](Cc2cnccn2)NC(=O)C(C)(C)NC(=O)[C@H](Cc2c[nH]c3ccccc23)NC(=O)[C@H](CCC(=O)O)NC(=O)C(C)(C)NC1=O` [Example 117] (cyclo([Phe(4-(cis-4-COOH-cHex))][4Pal][Phe(4-COOH)]G[Pro(cis-4-F)][Trp(βS-Me,4-F)][Aib]EW[Aib][Ala(2-pyrazinyl)]Q[Dab]G[dPro(4R-Bzl(4-F))])): 0.027 nM. The same measure for `C[C@@H](c1c[nH]c2cccc(F)c12)[C@@H]1NC(=O)[C@@H]2C[C@H](F)CN2C(=O)CNC(=O)[C@H](Cc2ccc(C(=O)O)cc2)NC(=O)[C@H](Cc2ccncc2)NC(=O)[C@H](Cc2ccc(-c3ccc(C(=O)O)cc3)cc2)NC(=O)[C@H]2C[C@@H](Cc3ccc(F)cc3)CN2C(=O)CNC(=O)[C@H](CCN)NC(=O)[C@H](CCC(N)=O)NC(=O)[C@H](CC2CCOCC2)NC(=O)C(C)(C)NC(=O)[C@H](Cc2c[nH]c3ccccc23)NC(=O)[C@H](CCC(=O)O)NC(=O)C(C)(C)NC1=O` [Example 118] (cyclo([Bip(4'-COOH)][4Pal][Phe(4-COOH)]G[Pro(cis-4-F)][Trp(βS-Me,4-F)][Aib]EW[Aib][Ala(4-THP)]Q[Dab]G[dPro(4R-Bzl(4-F))])): 0.016 nM; for `C[C@@H](c1c[nH]c2cccc(F)c12)[C@@H]1NC(=O)[C@@H]2C[C@H](F)CN2C(=O)CNC(=O)[C@H](Cc2ccc(C(=O)O)cc2)NC(=O)[C@H](Cc2ccncc2)NC(=O)[C@H](Cc2ccc(-c3ccc(C(=O)O)cc3)cc2)NC(=O)[C@H]2C[C@@H](Cc3ccc(F)cc3)CN2C(=O)CNC(=O)[C@H](CCN)NC(=O)[C@H](CCC(N)=O)NC(=O)[C@H](CC2CCNCC2)NC(=O)C(C)(C)NC(=O)[C@H](Cc2c[nH]c3ccccc23)NC(=O)[C@H](CCC(=O)O)NC(=O)C(C)(C)NC1=O` [Example 119] (cyclo([Bip(4'-COOH)][4Pal][Phe(4-COOH)]G[Pro(cis-4-F)][Trp(βS-Me,4-F)][Aib]EW[Aib][Ala(piperidin-4-yl)]Q[Dab]G[dPro(4R-Bzl(4-F))])): 0.016 nM.

Turning to `C[C@@H](c1c[nH]c2cccc(F)c12)[C@@H]1NC(=O)[C@@H]2C[C@H](F)CN2C(=O)CNC(=O)[C@H](Cc2ccc(C(=O)O)cc2)NC(=O)[C@H](Cc2ccncc2)NC(=O)[C@H](Cc2ccc(-c3ccc(C(=O)O)cc3)cc2)NC(=O)[C@H]2C[C@@H](Cc3ccc(F)cc3)CN2C(=O)CNC(=O)[C@H](CCN)NC(=O)[C@H](CCC(N)=O)NC(=O)[C@H](CN2CCNCC2)NC(=O)C(C)(C)NC(=O)[C@H](Cc2c[nH]c3ccccc23)NC(=O)[C@H](CCC(=O)O)NC(=O)C(C)(C)NC1=O` [Example 120] (cyclo([Bip(4'-COOH)][4Pal][Phe(4-COOH)]G[Pro(cis-4-F)][Trp(βS-Me,4-F)][Aib]EW[Aib][Ala(piperazin-1-yl)]Q[Dab]G[dPro(4R-Bzl(4-F))])), the IC50 was 0.014 nM.

`C[C@@H](c1c[nH]c2cccc(F)c12)[C@@H]1NC(=O)[C@@H]2C[C@H](F)CN2C(=O)CNC(=O)[C@H](Cc2ccc(C(=O)O)cc2)NC(=O)[C@H](Cc2ccncc2)NC(=O)[C@H](Cc2ccc(-c3ccc(C(=O)O)cc3)cc2)NC(=O)[C@H]2C[C@@H](Cc3ccc(F)cc3)CN2C(=O)CNC(=O)[C@H](CO)NC(=O)[C@H](CCC(N)=O)NC(=O)[C@H](CC2CCNCC2)NC(=O)C(C)(C)NC(=O)[C@H](Cc2c[nH]c3ccccc23)NC(=O)[C@H](CCC(=O)O)NC(=O)C(C)(C)NC1=O` [Example 121] (cyclo([Bip(4'-COOH)][4Pal][Phe(4-COOH)]G[Pro(cis-4-F)][Trp(βS-Me,4-F)][Aib]EW[Aib][Ala(piperidin-4-yl)]QSG[dPro(4R-Bzl(4-F))])): the IC50 amounted to 0.029 nM.

In the case of `C[C@@H](c1c[nH]c2cccc(F)c12)[C@@H]1NC(=O)[C@@H]2C[C@H](F)CN2C(=O)CNC(=O)[C@H](Cc2ccc(C(=O)O)cc2)NC(=O)[C@H](Cc2ccncc2)NC(=O)[C@H](Cc2ccc(-c3ccc(C(=O)O)cc3)cc2)NC(=O)[C@H]2C[C@@H](Cc3ccc(F)cc3)CN2C(=O)CNC(=O)[C@H](CO)NC(=O)[C@H](CCC(N)=O)NC(=O)[C@H](CN2CCNCC2)NC(=O)C(C)(C)NC(=O)[C@H](Cc2c[nH]c3ccccc23)NC(=O)[C@H](CCC(=O)O)NC(=O)C(C)(C)NC1=O` [Example 122] (cyclo([Bip(4'-COOH)][4Pal][Phe(4-COOH)]G[Pro(cis-4-F)][Trp(βS-Me,4-F)][Aib]EW[Aib][Ala(piperazin-1-yl)]QSG[dPro(4R-Bzl(4-F))])), the IC50 came to 0.019 nM. As for `C[C@@H](c1c[nH]c2cccc(F)c12)[C@@H]1NC(=O)[C@@H]2C[C@H](F)CN2C(=O)CNC(=O)[C@H](Cc2ccc(C(=O)O)cc2)NC(=O)[C@H](Cc2ccncc2)NC(=O)[C@H](Cc2ccc(-c3ccc(C(=O)O)cc3)cc2)NC(=O)[C@H]2C[C@@H](Cc3ccc(F)cc3)CN2C(=O)CNC(=O)[C@H](CO)NC(=O)[C@H](CCC(N)=O)NC(=O)[C@H](CN2CCOCC2)NC(=O)C(C)(C)NC(=O)[C@H](Cc2c[nH]c3ccccc23)NC(=O)[C@H](CCC(=O)O)NC(=O)C(C)(C)NC1=O` [Example 125] (cyclo([4Pal][Phe(4-COOH)]G[Pro(cis-4-F)][Trp(βS-Me,4-F)][Aib]EW[Aib][Ala(morpholin-4-yl)]QSG[dPro(4R-Bzl(4-F))][Bip(4'-COOH)])), the figure is 0.041 nM. The same measure for `C[C@@H](c1c[nH]c2cccc(F)c12)[C@@H]1NC(=O)[C@@H]2C[C@H](O)CN2C(=O)CNC(=O)[C@H](Cc2ccc(C(=O)O)cc2)NC(=O)[C@H](Cc2ccncc2)NC(=O)[C@H](Cc2ccc(-c3ccc(C(=O)O)cc3)cc2)NC(=O)[C@H]2C[C@@H](Cc3ccc(F)cc3)CN2C(=O)CNC(=O)[C@H](CCN)NC(=O)[C@H](CCC(N)=O)NC(=O)[C@H](Cc2cncnc2)NC(=O)C(C)(C)NC(=O)[C@H](Cc2c[nH]c3ccccc23)NC(=O)[C@H](CO)NC(=O)C(C)(C)NC1=O` [Example 127] (cyclo([Bip(4'-COOH)][4Pal][Phe(4-COOH)]G[cisHyp][Trp(βS-Me,4-F)][Aib]SW[Aib][Ala(pyrimidin-5-yl)]Q[Dab]G[dPro(4R-Bzl(4-F))])): 0.013 nM. The same measure for `C[C@@H](c1c[nH]c2cccc(F)c12)[C@@H]1NC(=O)[C@@H]2C[C@H](F)CN2C(=O)CNC(=O)[C@H](Cc2ccc(C(=O)O)cc2)NC(=O)[C@H](Cc2ccncc2)NC(=O)[C@H](Cc2ccc(-c3ccc(C(=O)O)cc3)cc2)NC(=O)[C@H]2C[C@@H](Cc3ccc(F)cc3)CN2C(=O)CNC(=O)[C@H](CCN)NC(=O)[C@H](CCC(N)=O)NC(=O)[C@H](Cc2cncnc2)NC(=O)[C@@](C)(CC(=O)O)NC(=O)[C@H](Cc2c[nH]c3ccccc23)NC(=O)[C@H](CO)NC(=O)C(C)(C)NC1=O` [Example 128] (cyclo([Bip(4'-COOH)][4Pal][Phe(4-COOH)]G[Pro(cis-4-F)][Trp(βS-Me,4-F)][Aib]SW[d(αMeD)][Ala(pyrimidin-5-yl)]Q[Dab]G[dPro(4R-Bzl(4-F))])): 0.009 nM.

For orientation: IC50 means the midpoint of a concentration-inhibition curve.

Source of the values: patent US20260242419A1, “A CYCLIC PEPTIDE FOR TRAPPING INTERLEUKIN-1 BETA” (Merck Sharp & Dohme LLC, priority 2023, published 2026).
